The values below come from patent publication US20250255301A1, “PESTICIDAL MIXTURES COMPRISING A PYRAZOLE COMPOUND” (BASF SE, priority 2019, published 2025).

Where two headings read alike, the source gives them in different places.

What all share (type): cell-based
For one assay, the system named is Botrytis cinerea. Nature of the assay: Activity against the grey mold Botrytis cinerea in the microtiterplate test. To be noted: single active, 7 days after inoculation. From the text: Synergism can be described as an interaction where the combined effect of two or more compounds is greater than the sum of the individual effects of each of the compounds. The presence of a synergistic effect in terms of percent control or efficacy, between two mixing partners (X and Y) can be calculated using the Colby equation (Colby, S. R., 1967, Calculating Synergistic and Antagonistic Responses in Herbicide Combinations, Weeds, 15, 20-22): The measured parameters were compared to the growth of the active compound-free control variant (100%) and the fungus-free blank value to determine the relative growth in % of the pathogens in the respective active compounds. These percentages were converted into efficacies. […] The expected efficacies of active compound mixtures were determined using Colby's formula [R. S. Colby, “Calculating synergistic and antagonistic responses of herbicide combinations”, Weeds 15, 20-22 (1967)] and compared with the observed efficacies. […] The stock solutions were mixed according to the ratio, pipetted onto a micro titer plate (MTP) and diluted with water to the stated concentrations. A spore suspension of Botrci cinerea in an aqueous biomalt or yeast-bactopeptone-sodiumacetate solution was then added. The plates were placed in a water vapor-saturated chamber at a temperature of 18° C.

Another assay relates to Septoria tritici. As to the kind of experiment: Activity against leaf blotch on wheat caused by Septoria tritici (microtiter plate). To be noted: single active, 7 days after inoculation. The text has this:
Synergism can be described as an interaction where the combined effect of two or more compounds is greater than the sum of the individual effects of each of the compounds. The presence of a synergistic effect in terms of percent control or efficacy, between two mixing partners (X and Y) can be calculated using the Colby equation (Colby, S. R., 1967, Calculating Synergistic and Antagonistic Responses in Herbicide Combinations, Weeds, 15, 20-22): The measured parameters were compared to the growth of the active compound-free control variant (100%) and the fungus-free blank value to determine the relative growth in % of the pathogens in the respective active compounds. These percentages were converted into efficacies. […] The expected efficacies of active compound mixtures were determined using Colby's formula [R. S. Colby, “Calculating synergistic and antagonistic responses of herbicide combinations”, Weeds 15, 20-22 (1967)] and compared with the observed efficacies. […] The stock solutions were mixed according to the ratio, pipetted onto a micro titer plate (MTP) and diluted with water to the stated concentrations. A spore suspension of Septoria tritici in an aqueous biomalt or yeast-bactopeptone-glycerine or DOB solution was then added. The plates were placed in a water vapor-saturated chamber at a temperature of 18° C. Using an absorption photometer, the MTPs were measured at 405 nm 7 days after the inoculation.

The next assay relates to Phytophthora infestans. To be noted: single active, 7 days after inoculation.
A further assay deals with Sclerotinia sclerotiorum. As to the kind of experiment: Activity against Sclerotinia sclerotiorum in the microtiterplate test. To be noted: single active, 7 days after inoculation.
Assay [1] deals with Colletotrichum orbiculare. Nature of the assay: Activity against Colletotrichum orbiculare in the microtiterplate test. To be noted: single active, 7 days after inoculation.
The test system of another assay is Cercospora sojina. As to the kind of experiment: Activity against Cercospora sojina in the microtiter test. To be noted: single active, 7 days after inoculation. The text has this: Synergism can be described as an interaction where the combined effect of two or more compounds is greater than the sum of the individual effects of each of the compounds. The presence of a synergistic effect in terms of percent control or efficacy, between two mixing partners (X and Y) can be calculated using the Colby equation (Colby, S. R., 1967, Calculating Synergistic and Antagonistic Responses in Herbicide Combinations, Weeds, 15, 20-22): The measured parameters were compared to the growth of the active compound-free control variant (100%) and the fungus-free blank value to determine the relative growth in % of the pathogens in the respective active compounds. These percentages were converted into efficacies. […] The expected efficacies of active compound mixtures were determined using Colby's formula [R. S. Colby, “Calculating synergistic and antagonistic responses of herbicide combinations”, Weeds 15, 20-22 (1967)] and compared with the observed efficacies. […] The stock solutions were mixed according to the ratio, pipetted onto a micro titer plate (MTP) and diluted with water to the stated concentrations. A spore suspension of Cercospora sojina in an aqueous biomalt or yeast-bactopeptone-sodiumacetate solution was then added. The plates were placed in a water vapor-saturated chamber at a temperature of 18° C. Using an absorption photometer, the MTPs were measured at 405 nm 7 days after the inoculation.

The subject of the next assay is Rhynchosporium secalis. As to the kind of experiment: Activity against Rhynchosporium secalis in the microtiterplate test. To be noted: single active, 63 ppm, 7 days after inoculation. From the text: Synergism can be described as an interaction where the combined effect of two or more compounds is greater than the sum of the individual effects of each of the compounds. The presence of a synergistic effect in terms of percent control or efficacy, between two mixing partners (X and Y) can be calculated using the Colby equation (Colby, S. R., 1967, Calculating Synergistic and Antagonistic Responses in Herbicide Combinations, Weeds, 15, 20-22): The measured parameters were compared to the growth of the active compound-free control variant (100%) and the fungus-free blank value to determine the relative growth in % of the pathogens in the respective active compounds. These percentages were converted into efficacies. […] The expected efficacies of active compound mixtures were determined using Colby's formula [R. S. Colby, “Calculating synergistic and antagonistic responses of herbicide combinations”, Weeds 15, 20-22 (1967)] and compared with the observed efficacies. […] The stock solutions were mixed according to the ratio, pipetted onto a micro titer plate (MTP) and diluted with water to the stated concentrations. A spore suspension of Rhynchosporium secalis in an aqueous biomalt or yeast-bactopeptone-glycerine or DOB solution was then added. […] Using an absorption photometer, the MTPs were measured at 405 nm 7 days after the inoculation.

Consider `CC(C)c1ccc(Cl)cc1CN(C(=O)c1c(C(F)F)nn(C)c1F)C1CC1` [Isoflucypram, isoflucypram, reference compound], for which the Observed efficacy is given as 57% with Botrytis cinerea (0.25 ppm) and 40% with Septoria tritici (0.063 ppm).
As for `Cc1cc(C(F)(F)F)nn1CC(=O)N1CCC(c2nc(C3=NOC(c4c(F)cccc4F)C3)cs2)CC1` (centres unmarked) [Oxathiapiproline, oxathiapiprolin, reference compound], the Observed efficacy in the assay on Phytophthora infestans (0.016 ppm) is 0%; with Phytophthora infestans (0.063 ppm) it was 11%.
Regarding `CCN(C(=O)c1cnn(C(C)C(C)C)c1C)c1ccnnc1` (racemic) [Dimpropyridaz, 1-[(1 RS)-1,2-dimethylpropyl]-N-ethyl-5-methyl-N-pyridazin-4-yl-1H-pyrazole-4-carboxamide], the Observed efficacy in the assay on Sclerotinia sclerotiorum (0.25 ppm) is recorded as 0%; with Botrytis cinerea (0.063 ppm), 0%; with Botrytis cinerea (0.25 ppm) it was 1%; with Botrytis cinerea (1 ppm), 0%; in assay [1] (63 ppm) it was 14%; with Cercospora sojina (0.25 ppm), 0%. In addition, the Observed efficacy in the assay on Cercospora sojina (63 ppm) is 23%; in the assay with Rhynchosporium secalis, 12%; in the assay on Septoria tritici (0.063 ppm) it was 5%; in the assay on Septoria tritici (0.25 ppm) it was 7%; in the assay on Phytophthora infestans (0.016 ppm) it was 0%; in the assay with Phytophthora infestans (0.063 ppm) it was 4%.
In the case of `N#Cc1ccc(Oc2ccc(C(F)(F)C(O)(Cn3ncnc3S)c3ccc(F)cc3F)nc2)cc1` (centres unmarked) [B.5)d), 4-[[6-[2-(2,4-difluorophenyl)-1,1-difluoro-2-hydroxy-3-(5-sulfanyl-1,2,4-triazol-1-yl)propyl]-3-pyridyl]oxy]benzonitrile], the Observed efficacy in the assay with Rhynchosporium secalis was 70%.
As to `COc1ccnc(C(=O)N[C@@H](C)C(=O)O[C@@H](C)C(c2ccc(F)cc2)c2ccc(F)cc2)c1OC(C)=O` [Florylpicoxamid, florylpicoxamid, reference compound], the Observed efficacy in the assay on Cercospora sojina (0.25 ppm) worked out at 6%; in the assay on Cercospora sojina (16 ppm), 61%.
On to `CON(C(=O)c1cn(C)nc1C(F)F)C(C)Cc1c(Cl)cc(Cl)cc1Cl` (centres unmarked) [Pydiflumetofen, pydiflumetofen, reference compound], for which the Observed efficacy came out at 42% with Botrytis cinerea (0.063 ppm) and 59% in assay [1] (16 ppm).
As to pyrapropoyne [reference compound], the Observed efficacy came out at 27% in the assay on Sclerotinia sclerotiorum (1 ppm) and 26% with Botrytis cinerea (1 ppm).
